Laboratory results: PubChem BioAssay AID248 (DTP/NCI, 2004)
Where “and” joins values, the source holds several entries; their conditions need not be identical. Equal entries are not always repeated. Inconclusive results and toxic doses are left out. Rule as the data show it: active = T/C of 150% or more; inactive = T/C below 125%.

Tested on: L1210 leukemia ip in BDF1 mice, survival T/C
Assay: NCI In Vivo Anticancer Drug Screen. Data for tumor model L1210 Leukemia (intraperitoneal) in B6D2F1 (BDF1) mice
Conditions: endpoint: mean survival time, higher = longer survival
In short: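 Read-out is survival time, reported as the treated-group measurement over the vehicle-control measurement.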

[1] = dose: 100.0 mg/kg/injection, schedule: Q01DX001 (ip), vehicle: saline
[2] = dose: 200.0 mg/kg/injection, schedule: Q01DX001 (ip), vehicle: saline
[3] = dose: 400.0 mg/kg/injection, schedule: Q01DX001 (ip), vehicle: saline
[4] = dose: 100.0 mg/kg/injection, schedule: Q01DX009 (ip), vehicle: saline
[5] = dose: 200.0 mg/kg/injection, schedule: Q01DX009 (ip), vehicle: saline
[6] = dose: 100.0 mg/kg/injection, schedule: Q04DX003 (ip), vehicle: Klucel (hydroxypropylcellulose) (HPC)
[7] = dose: 200.0 mg/kg/injection, schedule: Q04DX003 (ip), vehicle: Klucel (hydroxypropylcellulose) (HPC)
[8] = dose: 400.0 mg/kg/injection, schedule: Q04DX003 (ip), vehicle: Klucel (hydroxypropylcellulose) (HPC)
[9] = dose: 100.0 mg/kg/injection, schedule: Q04DX002 (ip), vehicle: Klucel (hydroxypropylcellulose) (HPC)

Measured: T/C

O=C1/C=C2/C=CC=CN2C(=O)/C=C2/C=CC=CN12
inactive: dose: 50.0 mg/kg/injection, schedule: Q01DX001 (ip), vehicle: saline 104 % of control | [1] 101 % of control | [2] 104 % of control | [3] 97 % of control

Cc1cc([N+](=O)[O-])c(P(=O)(O)O)cc1Cl
inactive: dose: 75.0 mg/kg/injection, schedule: Q01DX001 (ip), vehicle: saline 93 % of control | dose: 150.0 mg/kg/injection, schedule: Q01DX001 (ip), vehicle: saline 91 % of control | dose: 300.0 mg/kg/injection, schedule: Q01DX001 (ip), vehicle: saline 96 % of control

CC(=O)C1=C(O)c2ccccc2C(=O)C1=O
inactive: dose: 100.0 mg/kg/injection, schedule: Q01DX001 (ip), vehicle: water 96 % of control

CC1(C)Cc2cc3cc(Cl)ccc3nc2-c2ccccc21
inactive: [4] 102 % of control | dose: 100.0 mg/kg/injection, schedule: Q04DX003 (ip), vehicle: acetone 98 % of control | [5] 89 % of control | dose: 200.0 mg/kg/injection, schedule: Q04DX003 (ip), vehicle: acetone 104 % of control | dose: 400.0 mg/kg/injection, schedule: Q01DX009 (ip), vehicle: saline 100 % of control | dose: 400.0 mg/kg/injection, schedule: Q04DX003 (ip), vehicle: acetone 94 % of control

COC(=O)N/N=C/Cc1ccccc1
inactive: dose: 25.0 mg/kg/injection, schedule: Q01DX009 (ip), vehicle: saline with Tween-80 91 % of control | dose: 50.0 mg/kg/injection, schedule: Q01DX009 (ip), vehicle: saline with Tween-80 90 % of control | dose: 100.0 mg/kg/injection, schedule: Q01DX009 (ip), vehicle: saline with Tween-80 102 % of control

COc1cc(C2=N/C(=C\c3cccc([N+](=O)[O-])c3)C(=O)O2)cc(OC)c1OC
inactive: dose: 25.0 mg/kg/injection, schedule: Q04DX002 (ip), vehicle: saline with Tween-80 87 % of control | dose: 50.0 mg/kg/injection, schedule: Q04DX002 (ip), vehicle: saline with Tween-80 90 % of control | dose: 100.0 mg/kg/injection, schedule: Q04DX002 (ip), vehicle: saline with Tween-80 93 % of control and 89 % of control

c1ccc2c(c1)C1=NCCN1c1ccccc1-2
inactive: dose: 10.0 mg/kg/injection, schedule: Q01DX009 (ip), vehicle: Klucel (hydroxypropylcellulose) (HPC) 101 % of control | dose: 10.0 mg/kg/injection, schedule: Q04DX003 (ip), vehicle: Klucel (hydroxypropylcellulose) (HPC) 114 % of control | dose: 20.0 mg/kg/injection, schedule: Q01DX009 (ip), vehicle: Klucel (hydroxypropylcellulose) (HPC) 111 % of control | dose: 20.0 mg/kg/injection, schedule: Q04DX003 (ip), vehicle: Klucel (hydroxypropylcellulose) (HPC) 122 % of control | dose: 40.0 mg/kg/injection, schedule: Q01DX009 (ip), vehicle: Klucel (hydroxypropylcellulose) (HPC) 105 % of control | dose: 40.0 mg/kg/injection, schedule: Q04DX003 (ip), vehicle: Klucel (hydroxypropylcellulose) (HPC) 112 % of control

CC(=O)OC1CC2C=CC1CC2 (centres undefined)
inactive: dose: 50.0 mg/kg/injection, schedule: Q01DX001 (ip), vehicle: carboxymethylcellulose (CMC) 111 % of control | dose: 100.0 mg/kg/injection, schedule: Q01DX001 (ip), vehicle: carboxymethylcellulose (CMC) 101 % of control | dose: 200.0 mg/kg/injection, schedule: Q01DX001 (ip), vehicle: carboxymethylcellulose (CMC) 95 % of control | dose: 400.0 mg/kg/injection, schedule: Q01DX001 (ip), vehicle: carboxymethylcellulose (CMC) 101 % of control

c1ccc(N/N=C(\Oc2ccccc2)c2ccccc2)cc1
inactive: dose: 100.0 mg/kg/injection, schedule: Q04DX003 (ip), vehicle: saline with Tween-80 93 % of control | dose: 200.0 mg/kg/injection, schedule: Q04DX003 (ip), vehicle: saline with Tween-80 96 % of control | dose: 400.0 mg/kg/injection, schedule: Q04DX003 (ip), vehicle: saline with Tween-80 96 % of control

CCN(CC)C(/C=C/c1ccccc1)=N\S(=O)(=O)c1ccccc1
inactive: dose: 50.0 mg/kg/injection, schedule: Q01DX001 (ip), vehicle: Klucel (hydroxypropylcellulose) (HPC) 102 % of control | dose: 100.0 mg/kg/injection, schedule: Q01DX001 (ip), vehicle: Klucel (hydroxypropylcellulose) (HPC) 105 % of control | dose: 200.0 mg/kg/injection, schedule: Q01DX001 (ip), vehicle: Klucel (hydroxypropylcellulose) (HPC) 104 % of control

CCCCNC(=O)Nc1ccccc1C(N)=O
inactive: dose: 100.0 mg/kg/injection, schedule: Q01DX009 (ip), vehicle: Klucel (hydroxypropylcellulose) (HPC) 97 % of control | [6] 98 % of control | dose: 200.0 mg/kg/injection, schedule: Q01DX009 (ip), vehicle: Klucel (hydroxypropylcellulose) (HPC) 95 % of control | [7] 94 % of control | dose: 400.0 mg/kg/injection, schedule: Q01DX009 (ip), vehicle: Klucel (hydroxypropylcellulose) (HPC) 105 % of control | [8] 96 % of control

NCC(=O)c1ccc(-c2ccccc2)cc1
inactive: [1] 97 % of control | dose: 100.0 mg/kg/injection, schedule: Q04DX003 (ip), vehicle: saline 90 % of control | [2] 92 % of control | dose: 200.0 mg/kg/injection, schedule: Q04DX003 (ip), vehicle: saline 98 % of control | [3] 97 % of control

Cc1ccc(NC(=S)Nc2ccccc2)cc1
inactive: [6] 97 % of control | [7] 107 % of control

ClC(Cl)(Cl)SN1CCOCC1
inactive: dose: 50.0 mg/kg/injection, schedule: Q01DX009 (ip), vehicle: saline 106 % of control | [4] 95 % of control | [5] 104 % of control

NC(=O)C1C(=O)OC2(CCCC2)C1c1ccccc1 (centres undefined)
inactive: [6] 101 % of control | [7] 93 % of control | [8] 97 % of control

CC(C)(CBr)C(=O)N1CCN(C(=O)C(C)(C)CBr)CC1
inactive: dose: 6.2 mg/kg/injection, schedule: Q01DX Z (ip), vehicle: carboxymethylcellulose (CMC) 109 % of control | dose: 9.2 mg/kg/injection, schedule: Q01DX Z (ip), vehicle: methylcellulose (MC) 94 % of control | dose: 9.4 mg/kg/injection, schedule: Q01DX Z (ip), vehicle: carboxymethylcellulose (CMC) 118 % of control | dose: 14.0 mg/kg/injection, schedule: Q01DX Z (ip), vehicle: carboxymethylcellulose (CMC) 116 % of control | dose: 14.0 mg/kg/injection, schedule: Q01DX Z (ip), vehicle: methylcellulose (MC) 103 % of control | dose: 21.0 mg/kg/injection, schedule: Q01DX Z (ip), vehicle: carboxymethylcellulose (CMC) 121 % of control | dose: 21.0 mg/kg/injection, schedule: Q01DX Z (ip), vehicle: methylcellulose (MC) 103 % of control | dose: 42.0 mg/kg/injection, schedule: Q01DX Z (ip), vehicle: methylcellulose (MC) 111 % of control | dose: 50.0 mg/kg/injection, schedule: Q01DX Z (ip), vehicle: methylcellulose (MC) 121 % of control | dose: 68.0 mg/kg/injection, schedule: Q01DX Z (ip), vehicle: methylcellulose (MC) 98 % of control

S=C1N(C2CCCCC2)CCN1C1CCCCC1
inactive: [9] 97 % of control

CSc1nc2c(c(=O)[nH]1)C1C=C(C)CCC1C(C)(C)C2 (centres undefined)
inactive: [9] 98 % of control | dose: 200.0 mg/kg/injection, schedule: Q04DX002 (ip), vehicle: Klucel (hydroxypropylcellulose) (HPC) 96 % of control

O=C(CCCc1ccc(N(CCCl)CCCl)cc1)OCc1ccccc1
inactive: dose: 100.0 mg/kg/injection, schedule: Q04DX002 (ip), vehicle: saline 121 % of control | dose: 200.0 mg/kg/injection, schedule: Q04DX002 (ip), vehicle: saline 108 % of control | dose: 400.0 mg/kg/injection, schedule: Q04DX002 (ip), vehicle: saline 121 % of control

N#CCC[N+]1([O-])CCCC1C(=O)O (centres undefined)
inactive: [1] 103 % of control | [2] 101 % of control | [3] 103 % of control

O=C1CCN(C2CC(O)C(CO)C2)C(=O)N1 (centres undefined)
inactive: [1] 101 % of control | [2] 95 % of control | [3] 101 % of control

COC(=O)C1=C(C(=O)OC)C2CC1C1OC21 (centres undefined)
inactive: [4] 96 % of control | [5] 98 % of control
